Key:
AR / CBP ternary complex = experiment: Ternary complex formation assay (sandwich ELISA, AR capture / CBP detection) in VCaP cell lysates; format: cell-based; settings: 1.5 hours treatment, sandwich ELISA (AR capture, CBP or p300 detection)
Method in brief: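 Anti-AR (AR 441)-coated plates capture AR from lysates of VCaP cells grown ≥3 days at 50K/well in 5% charcoal-stripped FBS, dosed with bifunctional for 1.5 h and lysed 30 min at 4 °C. Co-captured CBP/p300 is probed with rabbit mAb and HRP anti-rabbit, then QuantaRed fluorescence (570/585) is read at 0, 5 and 15 min.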

VCaP cells = experiment: VCaP growth inhibition assay; format: cell-based; settings: 30 pM R1881, 9 days, CTG
Method in brief: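 Growth read by CTG luminescence after 9-day exposure to compound (final 100 nM–10 fM, 1:5 steps) plus 30 pM R1881, in phenol red-free DMEM with 5% CSS. Cells pre-incubated 72 h before dosing; IC50 by nonlinear 4-parameter regression.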

Row | SMILES | EC50 (AR / CBP ternary complex) [nM] | IC50 (VCaP cells) [nM]
1 | CC(=O)N1CCc2c(c(Nc3ccc(-c4cnn(C)c4)cc3F)nn2C2CCN(C(=O)CC3CCN(c4ncc(C(=O)NC5C(C)(C)C(Oc6ccc(C#N)c(Cl)c6)C5(C)C)cn4)CC3)CC2)C1 (centres unmarked) [Compound 178, 2-[4-[2-[4-[5-acetyl-3-[2-fluoro-4-(1-methylpyrazol-4-yl)anilino]-6,7-dihydro-4H-pyrazolo[4,3-c]pyridin-1-yl]-1-piperidyl]-2-oxo-ethyl]-1-piperidyl]-N-[3-(3-chloro-4-cyano-phenoxy)-2,2,4,4-tetramethyl-cyclobutyl]pyrimidine-5-carboxamide] | < 1 | 0.1 to 1
2 | CC(=O)N1CCc2c(c(N3CCCc4cc(-c5cnn(C)c5)c(C(F)F)cc43)nn2C2CCC3(CCCN(c4ncc(C(=O)NC5C(C)(C)C(Oc6ccc(C#N)c(Cl)c6)C5(C)C)cn4)C3)CC2)C1 (centres unmarked) [Compound 412, 2-[9-[5-acetyl-3-[7-(difluoromethyl)-6-(1-methylpyrazol-4-yl)-3,4-dihydro-2H-quinolin-1-yl]-6,7-dihydro-4H-pyrazolo[4,3-c]pyridin-1-yl]-2-azaspiro[5.5]undecan-2-yl]-N-[3-(3-chloro-4-cyano-phenoxy)-2,2,4,4-tetramethyl-cyclobutyl]pyrimidine-5-carboxamide] | > 100 | > 100
3 | CC(=O)N1CCc2c(c(N3CCCc4cc(-c5cnn(C)c5)c(C(F)F)cc43)nn2C2CCN([C@@H]3CCN(c4ncc(C(=O)NC5C(C)(C)C(Oc6ccc(C#N)c(Cl)c6)C5(C)C)cn4)C3)CC2)C1 (stereo partly drawn) [Compound 335, 2-[(3R)-3-[4-[5-acetyl-3-[7-(difluoromethyl)-6-(1-methylpyrazol-4-yl)-3,4-dihydro-2H-quinolin-1-yl]-6,7-dihydro-4H-pyrazolo[4,3-c]pyridin-1-yl]-1-piperidyl]pyrrolidin-1-yl]-N-[3-(3-chloro-4-cyano-phenoxy)-2,2,4,4-tetramethyl-cyclobutyl]pyrimidine-5-carboxamide] | < 1 | 0.1 to 1
4 | CC(=O)N1CCc2c(c(N3CCCc4ccc(C(F)F)cc43)nn2C2CC3(C2)CN(CC2CC4(C2)CN(c2ncc(C(=O)NC5C(C)(C)C(Oc6ccc(C#N)c(Cl)c6)C5(C)C)cn2)C4)C3)C1 (centres unmarked) [Compound 219, 2-[6-[[6-[5-acetyl-3-[7-(difluoromethyl)-3,4-dihydro-2H-quinolin-1-yl]-6,7-dihydro-4H-pyrazolo[4,3-c]pyridin-1-yl]-2-azaspiro[3.3]heptan-2-yl]methyl]-2-azaspiro[3.3]heptan-2-yl]-N-[3-(3-chloro-4-cyano-phenoxy)-2,2,4,4-tetramethyl-cyclobutyl]pyrimidine-5-carboxamide] | 1 to 10 | 0.1 to 1
5 | COc1cc(OC2C(C)(C)C(NC(=O)c3ccc(C#CC4CC(N5CCC(n6nc(N7CCCc8cc(-c9cnn(C)c9)c(C(F)F)cc87)c7c6CCN(C(C)=O)C7)CC5)C4)cc3)C2(C)C)ccc1C#N (centres unmarked) [Compound 294, 4-[2-[3-[4-[5-acetyl-3-[7-(difluoromethyl)-6-(1-methylpyrazol-4-yl)-3,4-dihydro-2H-quinolin-1-yl]-6,7-dihydro-4H-pyrazolo[4,3-c]pyridin-1-yl]-1-piperidyl]cyclobutyl]ethynyl]-N-[3-(4-cyano-3-methoxy-phenoxy)-2,2,4,4-tetramethyl-cyclobutyl]benzamide] | < 1 | 0.1 to 1
6 | CC(=O)N1CCc2c(c(N3CCCc4cc(-c5cnn(C)c5)c(C(F)F)cc43)nn2C2CCN(C[C@@H]3CCN(c4ncc(C(=O)NC5C(C)(C)C(Oc6ccc(C#N)c(Cl)c6)C5(C)C)cn4)C[C@@H]3C)CC2)C1 (some centres unmarked) [Compound 363] | < 1 | ≤ 0.1
7 | COc1cc(OC2C(C)(C)C(NC(=O)c3ccc(N4CCC5(CCC(n6nc(N7CCCc8cc(-c9cnn(C)c9)c(C(F)F)cc87)c7c6CCN(C(C)=O)C7)CC5)C4)cc3)C2(C)C)ccc1C#N (centres unmarked) [Compound 406, 4-[8-[5-acetyl-3-[7-(difluoromethyl)-6-(1-methylpyrazol-4-yl)-3,4-dihydro-2H-quinolin-1-yl]-6,7-dihydro-4H-pyrazolo[4,3-c]pyridin-1-yl]-2-azaspiro[4.5]decan-2-yl]-N-[3-(4-cyano-3-methoxy-phenoxy)-2,2,4,4-tetramethyl-cyclobutyl]benzamide] | 1 to 10 | 1 to 100

From patent publication US20250129070A1, “BIFUNCTIONAL ANDROGEN RECEPTOR COMPOUNDS” (priority 2023, published 2025)
